Results from patent US8178506B2, “Oligomeric compounds and compositions for use in modulation of small non-coding RNAs” (Regulus Therapeutics Inc., priority 2003, dated 2012).
In the oligonucleotide strings, read from the 5' end, every base follows the letter of its sugar. An asterisk marks phosphorothioate; unmarked linkages are phosphodiester. Other units and linkages are bracketed, terminal groups are in braces. A string of capitals states the bases alone. e = 2'-O-(2-methoxyethyl) (MOE); [5mC] = 5-methylcytosine

Columns and labels:
Type in all cases: cell-based, human
PPARγ = PPARγ mRNA expression in adipocytes (real-time PCR)
aP2 = aP2 mRNA expression in adipocytes (real-time PCR); conditions: for aP2 mRNA: differentiating adipocytes transfected with oligomeric compound, Table 75; for AP2 mRNA: Table 17, differentiating adipocytes, control = treatment with ISIS 342673
HSL = HSL mRNA expression in adipocytes (real-time PCR)
Glut4 = Glut4 mRNA expression in adipocytes (real-time PCR)
adipocytes = test: Triglyceride accumulation assay in adipocytes
[1] = differentiating adipocytes transfected with oligomeric compound, Table 75
[2] = Table 17, differentiating adipocytes, control = treatment with ISIS 342673

Substance | PPAR gamma mRNA (PPARγ; [1]) | aP2 mRNA (aP2) | HSL mRNA (HSL; [1]) | GLUT4 mRNA (Glut4; [1]) | TG (triglyceride accumulation) (adipocytes; [1]) | PPAR gamma mRNA (PPARγ; [2]) | AP2 mRNA (aP2) | HSL mRNA (HSL; [2]) | GLUT4 mRNA (Glut4; [2]) | TG (triglyceride accumulation) (adipocytes; [2])
328097 (antisense eT*eG*eT*e[5mC]*eA*eG*eA*eT*eA*eA*eA*e[5mC]*eA*eG*eA*eG*eT*eG*eG*eA*eA) [compound 328097] | 63 percentage of untreated control (UTC) | 48 percentage of untreated control (UTC) | 54 percentage of untreated control (UTC) | 62 percentage of untreated control (UTC) | 65 percentage of untreated control (UTC) | – | – | – | – | –
348124 (CACAAAUUCGGUUCUACAGGGUA; anti-miR; all 2'-MOE, all phosphorothioate, methylation of C and T or U not given here) [compound 348124] | 63 percentage of untreated control (UTC) | 59 percentage of untreated control (UTC) | 43 percentage of untreated control (UTC) | 41 percentage of untreated control (UTC) | 53 percentage of untreated control (UTC) | – | – | – | – | –
340352 (antisense CACAAGAUCGGAUCUACGGGUU; all 2'-MOE, all phosphorothioate, methylation of C and T or U not given here) [compound 340352] | 102 percentage of untreated control (UTC) | 107 percentage of untreated control (UTC) | 123 percentage of untreated control (UTC) | 97 percentage of untreated control (UTC) | 110 percentage of untreated control (UTC) | – | – | – | – | –
328135 (eA*e[5mC]*e[5mC]*eG*eA*eA*e[5mC]*eA*eA*eA*eG*eT*e[5mC]*eT*eG*eA*e[5mC]*eA*eG*eG*eA; anti-miR) [compound 328135] | 33 percentage of untreated control (UTC) | 34 percentage of untreated control (UTC) | 20 percentage of untreated control (UTC) | 19 percentage of untreated control (UTC) | 29 percentage of untreated control (UTC) | 70.0 percentage of control | 80.6 percentage of control | 76.7 percentage of control | 90.3 percentage of control | 63.6 percentage of control
328121 (antisense eA*eT*eG*eA*e[5mC]*eT*eA*e[5mC]*eA*eA*eG*eT*eT*eT*eA*eT*eG*eG*e[5mC]*e[5mC]*eA) [compound 328121] | 105 percentage of untreated control (UTC) | 119 percentage of untreated control (UTC) | 110 percentage of untreated control (UTC) | 115 percentage of untreated control (UTC) | 119 percentage of untreated control (UTC) | 103.6 percentage of control | 127.0 percentage of control | 126.0 percentage of control | 140.8 percentage of control | 134.8 percentage of control
346910 (GCAAUCAGCUAACUACACUGCCU; all 2'-MOE, all phosphorothioate, methylation of C and T or U not given here) [compound 346910] | 83 percentage of untreated control (UTC) | 78 percentage of untreated control (UTC) | 69 percentage of untreated control (UTC) | 63 percentage of untreated control (UTC) | 80 percentage of untreated control (UTC) | – | – | – | – | –
328096 (antisense e[5mC]*e[5mC]*eT*e[5mC]*eT*e[5mC]*eA*eA*eA*eG*eA*eT*eT*eT*e[5mC]*e[5mC]*eT*eG*eT*e[5mC]*eA) [compound 328096] | 89 percentage of untreated control (UTC) | 71 percentage of untreated control (UTC) | 76 percentage of untreated control (UTC) | 79 percentage of untreated control (UTC) | 74 percentage of untreated control (UTC) | – | – | – | – | –
